Experimental data from the kinase profiling compilation of Christmann-Franck et al. (2016).
pIC50: −log10 of the molar value.

Experiments:
ABL2 (human) = ABL2 (human) (UniProt P42684)
ACVR1B (human) = ACVR1B (human) (UniProt P36896)
BMP2K (human) = BMP2K (human) (UniProt Q9NSY1)
BTK (human) = BTK (human) (UniProt Q06187)
CAMK2G (human) = CAMK2G (human) (UniProt Q13555)
CAMKK2 (human) = CAMKK2 (human) (UniProt Q96RR4)
CLK2 (human) = CLK2 (human) (UniProt P49760)
CSK (human) = CSK (human) (UniProt P41240)
EIF2AK1 (human) = EIF2AK1 (human) (UniProt Q9BQI3)
EPHB1 (human) = EPHB1 (human) (UniProt P54762)
FRK (human) = FRK (human) (UniProt P42685)
HCK (human) = HCK (human) (UniProt P08631)
MAP3K1 (human) = MAP3K1 (human) (UniProt Q13233)
MAP3K11 (human) = MAP3K11 (human) (UniProt Q16584)
MAP3K3 (human) = MAP3K3 (human) (UniProt Q99759)
MAP3K4 (human) = MAP3K4 (human) (UniProt Q9Y6R4)
MAP4K2 (human) = MAP4K2 (human) (UniProt Q12851)
MAP4K5 (human) = MAP4K5 (human) (UniProt Q9Y4K4)
MERTK (human) = MERTK (human) (UniProt Q12866)
NLK (human) = NLK (human) (UniProt Q9UBE8)
PRKAA1 (human) = PRKAA1 (human) (UniProt Q13131)
PRKCQ (human) = PRKCQ (human) (UniProt Q04759)
PTK2B (human) = PTK2B (human) (UniProt Q14289)
RPS6KA3 KD1 KD2 (human) = RPS6KA3 KD1 KD2 (human) (UniProt P51812)
SIK3 (human) = SIK3 (human) (UniProt Q9Y2K2)
SMG1 (human) = SMG1 (human) (UniProt Q96Q15)
SYK (human) = SYK (human) (UniProt P43405)
TAOK1 (human) = TAOK1 (human) (UniProt Q7L7X3)
TBK1 (human) = TBK1 (human) (UniProt Q9UHD2)
TEC (human) = TEC (human) (UniProt P42680)
TNK2 (human) = TNK2 (human) (UniProt Q07912)
ULK3 (human) = ULK3 (human) (UniProt Q6PHR2)

Chain of TAOK1 (human) (Q7L7X3 whole entry, looked up): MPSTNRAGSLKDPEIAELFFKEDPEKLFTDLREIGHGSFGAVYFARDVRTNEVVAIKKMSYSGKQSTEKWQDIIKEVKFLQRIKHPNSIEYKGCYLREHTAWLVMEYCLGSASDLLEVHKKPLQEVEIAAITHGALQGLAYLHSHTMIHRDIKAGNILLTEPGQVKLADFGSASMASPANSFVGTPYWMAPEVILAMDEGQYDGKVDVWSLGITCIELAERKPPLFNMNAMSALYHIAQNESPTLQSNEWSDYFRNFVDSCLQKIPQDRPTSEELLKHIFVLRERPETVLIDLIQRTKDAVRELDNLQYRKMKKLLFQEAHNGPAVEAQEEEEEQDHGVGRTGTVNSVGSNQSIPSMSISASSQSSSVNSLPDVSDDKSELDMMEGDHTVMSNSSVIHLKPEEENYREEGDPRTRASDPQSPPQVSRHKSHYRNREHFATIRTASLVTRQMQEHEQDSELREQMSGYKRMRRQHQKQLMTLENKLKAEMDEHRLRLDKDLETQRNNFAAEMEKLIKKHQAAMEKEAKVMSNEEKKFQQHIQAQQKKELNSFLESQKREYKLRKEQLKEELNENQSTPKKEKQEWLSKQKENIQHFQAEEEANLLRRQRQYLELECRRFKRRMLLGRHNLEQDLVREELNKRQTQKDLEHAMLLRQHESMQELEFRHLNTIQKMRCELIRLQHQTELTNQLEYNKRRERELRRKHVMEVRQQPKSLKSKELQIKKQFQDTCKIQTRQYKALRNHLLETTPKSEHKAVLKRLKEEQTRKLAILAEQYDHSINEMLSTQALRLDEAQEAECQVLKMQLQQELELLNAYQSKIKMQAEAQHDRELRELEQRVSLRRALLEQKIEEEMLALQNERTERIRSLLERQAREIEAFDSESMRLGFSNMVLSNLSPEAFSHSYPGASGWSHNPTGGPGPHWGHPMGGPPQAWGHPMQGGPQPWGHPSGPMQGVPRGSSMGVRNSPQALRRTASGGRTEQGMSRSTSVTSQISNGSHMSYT
Chain of RPS6KA3 KD1 KD2 (human) (P51812 whole entry, looked up): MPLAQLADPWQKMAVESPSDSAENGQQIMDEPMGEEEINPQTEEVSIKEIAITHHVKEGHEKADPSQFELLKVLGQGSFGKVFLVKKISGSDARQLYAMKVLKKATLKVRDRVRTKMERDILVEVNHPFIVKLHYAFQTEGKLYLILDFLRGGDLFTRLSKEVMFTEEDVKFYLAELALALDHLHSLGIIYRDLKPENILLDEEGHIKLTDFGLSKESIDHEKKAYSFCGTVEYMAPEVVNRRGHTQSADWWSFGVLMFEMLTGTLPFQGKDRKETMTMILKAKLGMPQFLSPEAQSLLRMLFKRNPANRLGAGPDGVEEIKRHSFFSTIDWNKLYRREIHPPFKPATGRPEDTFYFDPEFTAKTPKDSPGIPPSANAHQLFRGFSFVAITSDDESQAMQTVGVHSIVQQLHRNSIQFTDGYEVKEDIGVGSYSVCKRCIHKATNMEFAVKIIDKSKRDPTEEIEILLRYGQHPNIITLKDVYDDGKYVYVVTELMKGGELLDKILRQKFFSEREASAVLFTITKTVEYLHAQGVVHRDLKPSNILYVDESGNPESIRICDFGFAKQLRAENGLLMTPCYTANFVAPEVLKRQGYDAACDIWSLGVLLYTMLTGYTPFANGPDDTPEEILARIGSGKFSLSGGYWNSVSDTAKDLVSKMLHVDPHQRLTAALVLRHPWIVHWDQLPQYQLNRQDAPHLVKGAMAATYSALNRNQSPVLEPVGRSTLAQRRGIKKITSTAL
Chain of MERTK (human) (Q12866 whole entry, looked up): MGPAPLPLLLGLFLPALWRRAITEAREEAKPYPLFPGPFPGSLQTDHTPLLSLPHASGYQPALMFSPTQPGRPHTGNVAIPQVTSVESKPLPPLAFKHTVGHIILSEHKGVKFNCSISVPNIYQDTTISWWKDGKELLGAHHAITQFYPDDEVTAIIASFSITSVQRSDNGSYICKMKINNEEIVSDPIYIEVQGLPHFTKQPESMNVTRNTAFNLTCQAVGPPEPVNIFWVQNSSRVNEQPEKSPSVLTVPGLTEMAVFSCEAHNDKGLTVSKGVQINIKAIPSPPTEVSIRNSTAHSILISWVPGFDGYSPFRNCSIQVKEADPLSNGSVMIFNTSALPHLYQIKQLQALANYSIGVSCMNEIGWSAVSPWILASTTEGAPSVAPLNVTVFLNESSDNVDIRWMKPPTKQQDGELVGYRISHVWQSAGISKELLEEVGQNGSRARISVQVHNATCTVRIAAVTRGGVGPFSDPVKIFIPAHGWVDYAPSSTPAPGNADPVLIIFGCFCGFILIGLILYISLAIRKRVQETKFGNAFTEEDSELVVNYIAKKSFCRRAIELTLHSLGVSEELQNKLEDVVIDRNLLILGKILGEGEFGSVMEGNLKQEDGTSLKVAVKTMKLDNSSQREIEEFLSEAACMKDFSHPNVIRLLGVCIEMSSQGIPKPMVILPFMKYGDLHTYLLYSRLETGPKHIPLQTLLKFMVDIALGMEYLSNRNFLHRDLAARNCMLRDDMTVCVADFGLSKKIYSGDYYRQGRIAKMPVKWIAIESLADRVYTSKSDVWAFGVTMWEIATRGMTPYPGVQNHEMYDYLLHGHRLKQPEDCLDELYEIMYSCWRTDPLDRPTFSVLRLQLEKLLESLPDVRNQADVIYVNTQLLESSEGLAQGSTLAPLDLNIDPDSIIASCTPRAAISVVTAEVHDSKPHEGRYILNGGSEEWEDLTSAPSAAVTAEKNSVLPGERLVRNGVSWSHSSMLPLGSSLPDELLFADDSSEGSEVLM
Chain of CLK2 (human) (P49760 whole entry, looked up): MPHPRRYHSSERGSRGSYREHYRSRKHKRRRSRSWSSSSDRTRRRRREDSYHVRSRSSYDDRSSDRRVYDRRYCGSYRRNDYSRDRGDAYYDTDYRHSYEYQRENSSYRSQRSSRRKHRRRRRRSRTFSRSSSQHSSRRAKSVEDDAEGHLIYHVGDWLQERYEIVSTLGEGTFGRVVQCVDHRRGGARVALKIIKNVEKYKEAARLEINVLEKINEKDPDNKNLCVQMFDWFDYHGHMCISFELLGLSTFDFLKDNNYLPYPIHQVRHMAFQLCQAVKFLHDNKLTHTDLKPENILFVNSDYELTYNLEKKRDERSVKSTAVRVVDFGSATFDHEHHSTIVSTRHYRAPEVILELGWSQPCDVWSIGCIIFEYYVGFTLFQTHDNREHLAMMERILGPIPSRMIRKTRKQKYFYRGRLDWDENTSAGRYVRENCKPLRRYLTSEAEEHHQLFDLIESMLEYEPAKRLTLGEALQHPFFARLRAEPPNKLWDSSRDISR
Chain of BMP2K (human) (Q9NSY1 whole entry, looked up): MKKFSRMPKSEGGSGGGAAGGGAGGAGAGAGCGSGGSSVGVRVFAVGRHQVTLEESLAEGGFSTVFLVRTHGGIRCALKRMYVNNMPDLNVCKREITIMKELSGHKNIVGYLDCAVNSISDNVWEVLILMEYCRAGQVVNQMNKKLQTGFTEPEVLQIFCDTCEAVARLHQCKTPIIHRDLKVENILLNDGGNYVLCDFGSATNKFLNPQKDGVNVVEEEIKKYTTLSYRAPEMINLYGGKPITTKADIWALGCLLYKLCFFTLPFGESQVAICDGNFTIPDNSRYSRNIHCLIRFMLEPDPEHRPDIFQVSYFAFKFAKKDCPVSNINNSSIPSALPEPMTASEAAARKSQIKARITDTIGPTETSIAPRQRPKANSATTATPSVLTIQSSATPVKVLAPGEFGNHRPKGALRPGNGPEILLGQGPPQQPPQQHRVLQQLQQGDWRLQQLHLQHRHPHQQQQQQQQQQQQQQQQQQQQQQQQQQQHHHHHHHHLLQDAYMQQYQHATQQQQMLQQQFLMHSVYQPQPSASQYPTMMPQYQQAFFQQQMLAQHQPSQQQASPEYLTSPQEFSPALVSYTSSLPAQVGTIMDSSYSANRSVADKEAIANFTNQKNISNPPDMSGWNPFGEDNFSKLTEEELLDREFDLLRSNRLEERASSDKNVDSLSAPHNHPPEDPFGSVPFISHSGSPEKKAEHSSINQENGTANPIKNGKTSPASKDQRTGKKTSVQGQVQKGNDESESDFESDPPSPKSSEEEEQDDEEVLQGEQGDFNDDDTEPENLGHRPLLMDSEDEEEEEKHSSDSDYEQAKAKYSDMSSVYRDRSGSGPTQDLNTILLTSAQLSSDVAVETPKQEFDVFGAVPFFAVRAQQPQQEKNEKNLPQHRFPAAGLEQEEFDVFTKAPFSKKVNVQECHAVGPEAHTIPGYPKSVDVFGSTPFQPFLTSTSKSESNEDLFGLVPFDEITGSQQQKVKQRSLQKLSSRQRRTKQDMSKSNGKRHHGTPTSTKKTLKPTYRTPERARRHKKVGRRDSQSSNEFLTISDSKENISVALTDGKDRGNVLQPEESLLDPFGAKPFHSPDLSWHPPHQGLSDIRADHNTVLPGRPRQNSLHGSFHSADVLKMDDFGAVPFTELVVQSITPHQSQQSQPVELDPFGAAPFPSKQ
Chain of CAMK2G (human) (Q13555 whole entry, looked up): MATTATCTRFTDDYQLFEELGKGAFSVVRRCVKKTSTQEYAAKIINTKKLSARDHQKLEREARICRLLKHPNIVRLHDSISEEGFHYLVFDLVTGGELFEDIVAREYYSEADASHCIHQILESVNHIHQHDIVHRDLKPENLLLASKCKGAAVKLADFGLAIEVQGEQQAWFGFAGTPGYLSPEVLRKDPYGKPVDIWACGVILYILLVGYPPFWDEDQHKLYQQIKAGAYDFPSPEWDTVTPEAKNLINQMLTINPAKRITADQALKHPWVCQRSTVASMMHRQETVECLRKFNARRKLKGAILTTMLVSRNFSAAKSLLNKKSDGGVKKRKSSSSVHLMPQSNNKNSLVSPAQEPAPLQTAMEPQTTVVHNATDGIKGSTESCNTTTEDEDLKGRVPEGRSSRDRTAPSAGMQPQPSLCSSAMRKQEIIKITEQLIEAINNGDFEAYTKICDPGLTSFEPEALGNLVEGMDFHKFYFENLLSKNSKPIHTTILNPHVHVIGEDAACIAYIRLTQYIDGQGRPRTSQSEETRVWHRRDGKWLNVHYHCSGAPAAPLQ

pIC50 (ABL2 (human)): 7.15 | pIC50 (ACVR1B (human)): 7.04 | pIC50 (BMP2K (human)): 5.97 | pIC50 (BTK (human)): 6.76 | pIC50 (CAMK2G (human)): 5.82 | pIC50 (CAMKK2 (human)): 5.85 | pIC50 (CLK2 (human)): 5.96 | pIC50 (CSK (human)): 6.15 | pIC50 (EIF2AK1 (human)): 5.91 | pIC50 (EPHB1 (human)): 6.43 | pIC50 (FRK (human)): 6.29 | pIC50 (HCK (human)): 6.24 | pIC50 (MAP3K1 (human)): 6.81 | pIC50 (MAP3K11 (human)): 5.81 | pIC50 (MAP3K3 (human)): 6.21 | pIC50 (MAP3K4 (human)): 6.52 | pIC50 (MAP4K2 (human)): 6.37 | pIC50 (MAP4K5 (human)): 6.31 | pIC50 (MERTK (human)): 6.13 | pIC50 (NLK (human)): 5.96 | pIC50 (PRKAA1 (human)): 5.97 | pIC50 (PRKCQ (human)): 5.81 | pIC50 (PTK2B (human)): 5.92 | pIC50 (RPS6KA3 KD1 KD2 (human)): 5.62 | pIC50 (SIK3 (human)): 6.46 | pIC50 (SMG1 (human)): 6.08 | pIC50 (SYK (human)): 6.13 | pIC50 (TAOK1 (human)): 5.58 | pIC50 (TBK1 (human)): 5.90 | pIC50 (TEC (human)): 6.25 | pIC50 (TNK2 (human)): 6.50 | pIC50 (ULK3 (human)): 6.07
Compound: COc1cc(Nc2c(C#N)cnc3cc(OCCCN4CCN(C)CC4)c(OC)cc23)c(Cl)cc1Cl
